Test results as given in US10342766B2, “6-shogaol derivatives and activities thereof” (North Carolina Agricultural and Technical State University, priority 2017, dated 2019).

Experiments:
[1] = system: human colon cancer cells HCT-116; assay: MTT growth inhibition, HCT-116; type: cell-based; settings: 24 hours
Procedure: (§1) Cell viability was determined by an MTT colorimetric assay. Briefly, human colon cancer cells HCT-116 or HT-29, were plated in 96-well microtiter plates with 3000 cells/well and allowed to attach for 24 hours at 37° C. and 5% CO2. The test compounds (in DMSO) were added to cell culture medium to desired final concentrations (final DMSO concentrations for control and treatments were 0.1%). After the cells were cultured for 24 hours, the medium was aspirated and cells were treated with 200 μL fresh medium containing 2.41 mmol/L MTT. After incubation for 3 hours at 37° C., the medium containing MTT was aspirated, 100 μL of DMSO was added to solubilize the formazan precipitate, and the plates were shaken gently for an hour at room temperature. Absorbance values were derived from the plate reading at 550 nm on a Biotek (Winooski, Vt., United States of America) microtiter plate reader. The reading reflected the number of viable cells and was expressed as a percentage of viable cells in the control. CCD-18Co cells were grown in EMEM. Both HCT-116 and HT-29 cells were cultured in McCoy's 5A medium. All of the above media were supplemented with 10% fetal bovine serum, 1% penicillin/streptomycin, and 1% glutamine, and the cells were kept in a 37° C. incubator with 95% humidity and 5% CO2.

[2] = Biotransformation in zebrafish embryos (cysteine conjugates, LC/MS); type: in vivo; settings: 5 μM in incubation medium, 8 hpf to 24 hpf
Procedure: Fifty zebrafish embryos at the 8 hour-post-fertilization (hpf) stage were incubated at 28.5° C. in 0.3× Danieau's solution (19.3 mM NaCl, 0.23 mM KCl, 0.13 mM MgSO4, 0.2 mM Ca(NO3)2, 1.7 mM HEPES, pH 7.0) with or without 5 μM 18 and 25-27, respectively. At 24 hpf, embryos were dechorionated manually and the chorions were carefully removed one by one from the culture medium. The zebrafish embryos were harvested and kept at −80° C. till analyzed by LC/MS.
200 μL Sodium acetate buffer solution (pH 5.0) was added to 50 zebrafish embryos. Samples were homogenized for 90 s by an Omni Bead Ruptor Homogenizer (Kennesaw, Ga., United States of America). 10 μL 10% ascorbic acid and 300 μL sodium acetate buffer were added to the homogenates. The mixture was incubated in the presence of β-glucuronidase (250 U) and sulfatase (3 U) at 37° C. for 45 min, and then 600 μL MeOH with 1% acetic acid was added. The resulting mixture was vortexed for 30 s and then centrifuged at 17000 g for 10 min. The supernatant was removed and evaporated under a gentle stream of nitrogen. The residue was reconstituted in 150 μL 90% MeOH with 0.2% acetic acid (AA), and 10 μL was analyzed directly by LC/MS.
(§2) LC/MS analysis was carried out with a Thermo-Finnigan Spectra System, which consisted of an Accela high speed MS pump, an Accela refrigerated autosampler, and an LCQ Fleet ion trap mass detector (Thermo Electron, San Jose, Calif., United States of America) incorporated with an electrospray ionization (ESI) interface. A Gemini-NX C18 column (150 mm×4.6 mm i.d., 5 μm; Phenomenex, Torrance, Calif., United States of America) was used for separation at a flow rate of 0.3 mL/min. The column was eluted with 100% A (5% aqueous methanol with 0.2% formic acid) for 1 min, followed by linear increases in B (95% aqueous methanol with 0.2% formic acid) to 55% from 1 to 4 min, to 85% from 4 to 25 min, then to 100% B from 25 to 30 min, and then with 100% B from 30 to 35 min. The column was then re-equilibrated with 100% A for 5 min. The LC eluent was introduced into the ESI interface. The positive ion polarity mode was set for the ESI source with the voltage on the ESI interface maintained at approximately 4.6 kV. Nitrogen gas was used as the sheath gas and auxiliary gas. Optimized source parameters, including capillary temperature (260° C.), sheath gas flow rate (31 arbitrary units), auxiliary gas flow rate (16 units), tube lens (34 V), and capillary voltage 9 V, were tuned using authentic samples. The collision-induced dissociation (CID) was conducted with an isolation width 2 Da and normalized collision energy of 35 for MS^2. The mass range was measured from 100 to 800 m/z. Data acquisition was performed with Xcalibur version 2.0 (Thermo Electron, San Jose, Calif., United States of America).

[3] = Formation of cysteine conjugates in mice (urine, LC/MS); type: in vivo, mouse; settings: oral gavage 200 mg/kg, urine collected in 24 h
Procedure: as §2, with “Optimized source parameters, including capillary temperature (260° C.), sheath gas flow rate (31 arbitrary units), auxiliary gas flow rate (16 units), tube lens (34 V), and capillary voltage 9 V, were tuned using authentic samples. The collision-induced dissociation (CID) was conducted with an isolation width 2 Da and normalized collision energy of 35 for MS^2.” left out, “Data acquisition was performed with Xcalibur version 2.0 (Thermo Electron, San Jose, Calif., United States of America).” left out
Enzymatic deconjugation of mouse urine was performed as described previously with slight modifications. […] The resulting suspension was centrifuged at 17,000 g for 5 min, and 10 μL of supernatant was analyzed directly by LC/MS.

[4] = system: human colon cancer cells HT-29; assay: MTT growth inhibition, HT-29; type: cell-based; settings: 24 hours
Procedure: as §1

## CCCCCCCC(=O)/C=C/c1ccc(O)c(O)c1 [Compound 27]
[1]
  IC50: 34.1 µM
[2]
  Cysteine conjugates found in zebrafish embryos: four cysteine conjugates 36, 36a, 37, and 37b were found
[3]
  Cysteine conjugates found in mouse urine: conjugate 36 and its reduced form 36a, three additional conjugates 37, 37a, and 37b
[4]
  IC50: 78.4 µM
